Test results taken from PMC9080521, “Molecular basis of rutin inhibition of protein disulfide isomerase (PDI) by combined in silico and experimental methods” (RSC Advances, 2018).
Several values for one entry are separate records, joined by “and”; a condition that tells them apart may be missing. Equal entries are not always repeated.

Tests used:
MBP-PDI-b′xa′ E359A [1] = target: T1, MBP-PDI-b′xa′ E359A (Homo sapiens, UniProt P07237, E359A); assay: Isothermal titration calorimetry (ITC); format: binding; conditions: 25 °C
T1 construct: MBP-PDI-b′xa′(235–479); His-tag; made in house; host or cells: E. coli BL21 (DE3)
Procedure: (§1) Microcalorimetry titration of rutin to PDI recombinant and mutant proteins used a MicroCal ITC200 microcalorimeter (GE Healthcare). PDI recombinant proteins, which concentration ranges from 25 μM to 50 μM, were added into the cell (about 300 μL). Rutin, with concentration ranging from 500 μM to 1 mM, was injected from syringe to titrate the protein in cell (almost 40 μL). The experiment was performed at 25 °C with a equilibration time of 10 min, the reference power was set to 6.25 μcal s^−1. The process including 25 injections, each of 1, 2 or 2.5 μL rutin, in a duration of 3 s, and the interval time between two injections was 180 s. Data was analyzed with MicroCal Origin (MicroCal).
(§2) Next, we resorted to a more sensitive method, isothermal titration calorimetry (ITC), to measure the direct binding. Due to the weak interaction, this method requires large amounts of high-purity protein samples (about 240 μL at 20–50 μM) to be titrated by the highest concentration of rutin (its water solubility of about 200 μM), so that the release of heat as a result of complex formation reached plateau phase rapidly and was enough to be measured. A problem we encountered is that the starting phase of the S-shape curve of heat measurement cannot always be resolved using the typical titration program of ITC, thus affecting the accuracy of dissociation constant (Kd) measurement from the S-shape ITC curve. This was due to the use of equal volume of small molecule titrant (∼2.5 μL) used in the typical ITC titration. Therefore, we established an optimized ITC titration scheme by using variable drop sizes, which started with small drops (1 μL at first ten times of injection) and ended with large drops (2 μL). We thus obtained S-shape ITC curves with well-defined upper and lower platforms (Fig. 5 and S6 ^†), which allowed the accurate measurements of Kd values.

MBP-PDI-b′xa′ E359K [2] = target: T2, MBP-PDI-b′xa′ E359K (Homo sapiens, UniProt P07237, E359K); assay: Isothermal titration calorimetry (ITC); format: binding; conditions: 25 °C
T2 construct: MBP-PDI-b′xa′(235–479); His-tag; made in house; host or cells: E. coli BL21 (DE3)
Procedure: as §1, §2

MBP-PDI-b′xa′ H354A [3] = target: T3, MBP-PDI-b′xa′ H354A (Homo sapiens, UniProt P07237, H354A); assay: Isothermal titration calorimetry (ITC); format: binding
T3 construct: MBP-PDI-b′xa′(235–479); His-tag; made in house; host or cells: E. coli BL21 (DE3)
Procedure: as §1, §2

MBP-PDI-b′xa′ L355R [4] = target: T4, MBP-PDI-b′xa′ L355R (Homo sapiens, UniProt P07237, L355R); assay: Isothermal titration calorimetry (ITC); format: binding; conditions: 25 °C
T4 construct: MBP-PDI-b′xa′(235–479); His-tag; made in house; host or cells: E. coli BL21 (DE3)
Procedure: as §1, §2

wt MBP-PDI-b′xa′ [5] = target: T5, wt MBP-PDI-b′xa′ (Homo sapiens, UniProt P07237); assay: Isothermal titration calorimetry (ITC); format: binding; conditions: 25 °C
T5 construct: MBP-PDI-b′xa′(235–479); His-tag; made in house; host or cells: E. coli BL21 (DE3)
Procedure: as §1, §2
Target sequence in this assay (P07237 235-480): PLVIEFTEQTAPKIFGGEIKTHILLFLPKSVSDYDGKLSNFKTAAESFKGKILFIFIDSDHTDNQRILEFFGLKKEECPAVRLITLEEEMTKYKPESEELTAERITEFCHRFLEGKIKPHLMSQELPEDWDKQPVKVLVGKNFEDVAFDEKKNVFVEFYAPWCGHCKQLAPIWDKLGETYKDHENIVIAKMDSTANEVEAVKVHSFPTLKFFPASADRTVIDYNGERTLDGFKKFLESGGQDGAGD

MBP-PDI-b′xa′ E359A [6] = target: T1, MBP-PDI-b′xa′ E359A; assay: Insulin reduction assay; format: biochemical; conditions: rutin 100 μM
Procedure: (§3) The insulin reduction assay was performed to assess the enzymatic activity of PDI and its MBP-fused recombinant proteins. PDI can reduce insulin in the presence of dithiothreitol (DTT) along with increase in turbidity of the reaction mixture. We thus monitored spectrophotometrically the aggregation of reduced insulin through the increase of turbidity. The reductase activity was measured in 100 μL in presence of 600 μM insulin, 1.5 μM PDI and recombinant PDI proteins, 1 mM DTT, and with protein buffer (pH 7.4), at room temperature over 100 min by absorption at 650 nm. For inhibition assay, 100 μM of rutin, kaempferitrin, tiliroside and 2′-O-galloylhyperin or control buffer was added to the reaction system.
(§4) We further used the insulin reduction assay to measure the reductase activities of these site-directed MBP-PDI-b′xa′ mutants. This assay has typically good reproducibility as shown by a control experiment with three repetitions (Fig. S7 ^†). We found the PDI mutants maintained reductase activities in the presence of dithiothreitol (DTT). The H354A mutation lowered the reductase activity of wt MBP-PDI-b′xa′ (Fig. 3G) while other mutants had similar reductase activities with that of wt MBP-PDI-b′xa′ (Fig. 3C, F and H–J). Addition of rutin inhibited the reductase activities of both wt MBP-PDI-b′xa′ and the mutants (Fig. 3C and F–J). […] We quantified the inhibition of rutin on these MBP-PDI-b′xa′ mutants by measuring the increase of turbidity (OD650 at 100 min) upon addition of rutin (Fig. 3K).

MBP-PDI-b′xa′ E359K [7] = target: T2, MBP-PDI-b′xa′ E359K; assay: Insulin reduction assay; format: biochemical; conditions: rutin 100 μM
Procedure: as §3, §4

MBP-PDI-b′xa′ H354A [8] = target: T3, MBP-PDI-b′xa′ H354A; assay: Insulin reduction assay; format: biochemical; conditions: rutin 100 μM
Procedure: as §3, §4

MBP-PDI-b′xa′ K328E = target: T6, MBP-PDI-b′xa′ K328E (Homo sapiens, UniProt P07237, K328E); assay: Insulin reduction assay; format: biochemical; conditions: rutin 100 μM
T6 construct: MBP-PDI-b′xa′(235–479); His-tag; made in house; host or cells: E. coli BL21 (DE3)
Procedure: as §3, §4

MBP-PDI-b′xa′ L355R [9] = target: T4, MBP-PDI-b′xa′ L355R; assay: Insulin reduction assay; format: biochemical; conditions: rutin 100 μM
Procedure: as §3, §4

wt MBP-PDI-b′xa′ [10] = target: T5, wt MBP-PDI-b′xa′; assay: Insulin reduction assay; format: biochemical
Procedure: as §3, §4
Target sequence in this assay (P07237 235-479): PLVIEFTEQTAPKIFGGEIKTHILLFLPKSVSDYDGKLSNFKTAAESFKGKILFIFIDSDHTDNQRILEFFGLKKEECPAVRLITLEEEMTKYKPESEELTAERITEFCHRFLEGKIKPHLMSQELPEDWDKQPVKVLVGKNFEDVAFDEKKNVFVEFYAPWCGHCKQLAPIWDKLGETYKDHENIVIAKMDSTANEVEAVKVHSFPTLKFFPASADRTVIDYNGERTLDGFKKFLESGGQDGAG

ERp57 = tested on: ERp57; parameters: method as in PMID 22565308; conditions: cited from earlier work
thioredoxin = tested on: thioredoxin; parameters: method as in PMID 22565308; conditions: cited from earlier work

T4 sequence (P07237 235-479 L355R): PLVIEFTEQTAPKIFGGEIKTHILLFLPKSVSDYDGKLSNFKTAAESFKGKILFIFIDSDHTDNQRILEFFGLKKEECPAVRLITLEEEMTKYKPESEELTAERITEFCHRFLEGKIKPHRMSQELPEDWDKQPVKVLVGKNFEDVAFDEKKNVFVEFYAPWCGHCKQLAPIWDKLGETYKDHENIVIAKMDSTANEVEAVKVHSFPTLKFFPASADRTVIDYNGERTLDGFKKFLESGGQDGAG
T2 sequence (P07237 235-479 E359K): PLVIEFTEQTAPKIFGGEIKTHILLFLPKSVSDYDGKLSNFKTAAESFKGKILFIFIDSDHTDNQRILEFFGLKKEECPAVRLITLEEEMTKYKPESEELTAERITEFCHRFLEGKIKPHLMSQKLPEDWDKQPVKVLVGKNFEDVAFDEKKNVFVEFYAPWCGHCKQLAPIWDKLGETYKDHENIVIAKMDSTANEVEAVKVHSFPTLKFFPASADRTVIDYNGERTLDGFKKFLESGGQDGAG
T1 sequence (P07237 235-479 E359A): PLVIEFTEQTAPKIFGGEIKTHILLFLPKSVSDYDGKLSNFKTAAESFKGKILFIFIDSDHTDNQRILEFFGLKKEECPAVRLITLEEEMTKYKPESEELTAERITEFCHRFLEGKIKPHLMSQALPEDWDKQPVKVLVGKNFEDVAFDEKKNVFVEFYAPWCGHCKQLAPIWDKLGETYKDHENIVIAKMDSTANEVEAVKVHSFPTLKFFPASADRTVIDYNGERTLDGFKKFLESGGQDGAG
T3 sequence (P07237 235-479 H354A): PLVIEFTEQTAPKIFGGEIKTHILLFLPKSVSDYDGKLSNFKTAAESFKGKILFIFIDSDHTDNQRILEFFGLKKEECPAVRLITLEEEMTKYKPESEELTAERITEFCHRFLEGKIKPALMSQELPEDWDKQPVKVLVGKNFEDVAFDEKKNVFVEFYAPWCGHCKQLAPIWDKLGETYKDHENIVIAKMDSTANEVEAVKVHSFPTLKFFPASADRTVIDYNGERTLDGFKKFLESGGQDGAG
T6 sequence (P07237 235-479 K328E): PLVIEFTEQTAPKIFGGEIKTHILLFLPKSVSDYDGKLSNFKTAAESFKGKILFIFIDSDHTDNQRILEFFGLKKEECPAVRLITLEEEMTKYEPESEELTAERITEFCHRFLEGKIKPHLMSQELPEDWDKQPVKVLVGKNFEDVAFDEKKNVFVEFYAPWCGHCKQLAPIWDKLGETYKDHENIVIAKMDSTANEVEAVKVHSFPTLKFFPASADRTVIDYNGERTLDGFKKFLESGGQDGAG

Compound: C[C@@H]1O[C@@H](OC[C@H]2O[C@@H](Oc3c(-c4ccc(O)c(O)c4)oc4cc(O)cc(O)c4c3=O)[C@H](O)[C@@H](O)[C@@H]2O)[C@H](O)[C@H](O)[C@H]1O [rutin]
- Kd (MBP-PDI-b′xa′ E359A [1]): 4.1 ± 0.74 µM
- N (stoichiometry ratio) (MBP-PDI-b′xa′ E359A [1]): 1.18 ± 0.03
- ΔG (MBP-PDI-b′xa′ E359A [1]): -7.39 ± 0.49 kcal/mol
- Kd (MBP-PDI-b′xa′ E359K [2]): 4.48 ± 0.58 µM
- N (stoichiometry ratio) (MBP-PDI-b′xa′ E359K [2]): 1.21 ± 0.02
- ΔG (MBP-PDI-b′xa′ E359K [2]): -7.31 ± 0.45 kcal/mol
- decrease of binding to H354A mutant compared with wt MBP-PDI-b′xa′ (MBP-PDI-b′xa′ H354A [3]; ITC Kd 5.98 vs 2.39 μM): about 3 times
- Kd (MBP-PDI-b′xa′ H354A [3]; ITC, 25 °C, H354A): 5.98 ± 1.08 µM
- N (stoichiometry ratio) (MBP-PDI-b′xa′ H354A [3]; ITC, 25 °C, H354A): 0.72 ± 0.03
- ΔG (MBP-PDI-b′xa′ H354A [3]; ITC, 25 °C, H354A): -7.15 ± 0.86 kcal/mol
- Kd (MBP-PDI-b′xa′ L355R [4]): 3.5 ± 0.39 µM
- N (stoichiometry ratio) (MBP-PDI-b′xa′ L355R [4]): 1.93 ± 0.03
- ΔG (MBP-PDI-b′xa′ L355R [4]): -7.46 ± 0.23 kcal/mol
- Kd (wt MBP-PDI-b′xa′ [5]): 2.31 µM and 2.39 µM
- inhibition at 100 µM (MBP-PDI-b′xa′ E359A [6]; increase of turbidity (OD650) at 100 min, E359A, read-out: Inhibitory efficiency (%)): 86%
- turbidity (OD650), raw kinetic read at 1:40:32 (MBP-PDI-b′xa′ E359A [6]; last read (100 min), E359A alone 0.711): 0.416
- inhibition at 100 µM (MBP-PDI-b′xa′ E359K [7]; increase of turbidity (OD650) at 100 min, E359K, read-out: Inhibitory efficiency (%)): 88.8%
- turbidity (OD650), raw kinetic read at 1:40:32 (MBP-PDI-b′xa′ E359K [7]; last read (100 min), E359K alone 0.698): 0.4
- inhibition at 100 µM (MBP-PDI-b′xa′ H354A [8]; increase of turbidity (OD650) at 100 min, H354A, read-out: Inhibitory efficiency (%)): 82.9%
- turbidity (OD650), raw kinetic read at 1:40:32 (MBP-PDI-b′xa′ H354A [8]; last read (100 min), H354A alone 0.585): 0.35
- inhibition at 100 µM (MBP-PDI-b′xa′ K328E; increase of turbidity (OD650) at 100 min, K328E, read-out: Inhibitory efficiency (%)): 99%
- turbidity (OD650), raw kinetic read at 1:40:32 (MBP-PDI-b′xa′ K328E; last read (100 min), K328E alone 0.777): 0.4
- decrease of inhibitory efficiency compared with wt MBP-PDI-b′xa′ (MBP-PDI-b′xa′ L355R [9]; L355R): modest decrease
- inhibition at 100 µM (MBP-PDI-b′xa′ L355R [9]; increase of turbidity (OD650) at 100 min, L355R, read-out: Inhibitory efficiency (%)): 98.4%
- turbidity (OD650), raw kinetic read at 1:40:32 (MBP-PDI-b′xa′ L355R [9]; last read (100 min), L355R alone 0.819): 0.424
- turbidity (OD650), raw kinetic read at 1:40:32 (wt MBP-PDI-b′xa′ [10]; compound 100 μM, 1.5 μM protein, last read (100 min), WT alone 0.829): 0.585
- inhibition at 100 µM (wt MBP-PDI-b′xa′ [10]; rutin 100 μM, increase of turbidity (OD650) at 100 min, wt, read-out: Inhibitory efficiency (%)): 100%
- inhibition of ERp57 (ERp57): did not inhibit
- inhibition of thioredoxin (thioredoxin): did not inhibit
